Results: PubChem BioAssay (NCI)
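Protocol summary: plate cells (96-well), add compound at 5 concentrations, incubate 48 h, interpolate endpoints linearly. GI50: concentration for 50% inhibition of growth. TGI: total growth inhibition.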

Experiments:
Test in all cases: NCI anticancer screen, dose series, 48 h
UACC-62 melanoma = tested on: UACC-62 melanoma
HOP-92 NSCLC = tested on: HOP-92 NSCLC
SR leukemia = tested on: SR leukemia
RPMI-8226 leukemia = tested on: RPMI-8226 leukemia
HS 578T breast = tested on: HS 578T breast
M14 melanoma = tested on: M14 melanoma
786-0 renal = tested on: 786-0 renal
SF-539 CNS = tested on: SF-539 CNS
SF-295 CNS = tested on: SF-295 CNS
T-47D breast = tested on: T-47D breast
EKVX NSCLC = tested on: EKVX NSCLC
UO-31 renal = tested on: UO-31 renal
UACC-257 melanoma = tested on: UACC-257 melanoma
SN12C renal = tested on: SN12C renal
LOX IMVI melanoma = tested on: LOX IMVI melanoma
SNB-75 CNS = tested on: SNB-75 CNS
OVCAR-4 ovarian = tested on: OVCAR-4 ovarian
HCC-2998 colon = tested on: HCC-2998 colon
HOP-62 NSCLC = tested on: HOP-62 NSCLC
SNB-19 CNS = tested on: SNB-19 CNS
HL-60(TB) leukemia = tested on: HL-60(TB) leukemia
OVCAR-5 ovarian = tested on: OVCAR-5 ovarian
OVCAR-8 ovarian = tested on: OVCAR-8 ovarian
SK-MEL-2 melanoma = tested on: SK-MEL-2 melanoma
HCT-15 colon = tested on: HCT-15 colon
CCRF-CEM leukemia = tested on: CCRF-CEM leukemia
COLO 205 colon = tested on: COLO 205 colon
NCI-H23 lung = tested on: NCI-H23 lung
A549 NSCLC = tested on: A549 NSCLC
SF-268 CNS = tested on: SF-268 CNS
PC-3 prostate = tested on: PC-3 prostate
NCI-H460 lung = tested on: NCI-H460 lung
BT-549 breast = tested on: BT-549 breast
NCI-H522 lung = tested on: NCI-H522 lung
SK-OV-3 ovarian = tested on: SK-OV-3 ovarian
DU-145 prostate = tested on: DU-145 prostate
MDA-MB-435 = tested on: MDA-MB-435
MDA-MB-231 breast = tested on: MDA-MB-231 breast
TK-10 renal = tested on: TK-10 renal
MALME-3M melanoma = tested on: MALME-3M melanoma
ACHN renal = tested on: ACHN renal
OVCAR-3 ovarian = tested on: OVCAR-3 ovarian
SK-MEL-28 melanoma = tested on: SK-MEL-28 melanoma
SK-MEL-5 melanoma = tested on: SK-MEL-5 melanoma
SW-620 colon = tested on: SW-620 colon
MOLT-4 leukemia = tested on: MOLT-4 leukemia
K-562 leukemia = tested on: K-562 leukemia
CAKI-1 renal = tested on: CAKI-1 renal
HT29 colon = tested on: HT29 colon
NCI-H226 lung = tested on: NCI-H226 lung
IGROV1 ovarian = tested on: IGROV1 ovarian
U251 CNS = tested on: U251 CNS
KM12 colon = tested on: KM12 colon
HCT-116 colon = tested on: HCT-116 colon
A498 renal = tested on: A498 renal
MCF7 breast = tested on: MCF7 breast
RXF 393 renal = tested on: RXF 393 renal
NCI/ADR-RES ovarian = tested on: NCI/ADR-RES ovarian

NC(N)=Nc1ccc(/C=C2\C=Cc3ccccc32)cc1
GI50 (UACC-62 melanoma): 2.84 µM
TGI (UACC-62 melanoma): 9.94 µM
GI50 (HOP-92 NSCLC): 1.44 µM
TGI (HOP-92 NSCLC): 4.6 µM
GI50 (SR leukemia): 2.5 µM
TGI (SR leukemia): 6.85 µM
GI50 (RPMI-8226 leukemia): 3.18 µM
TGI (RPMI-8226 leukemia): 14.4 µM
GI50 (HS 578T breast): 5.38 µM
TGI (HS 578T breast): 28.6 µM
GI50 (M14 melanoma): 2.05 µM
TGI (M14 melanoma): 5.44 µM
GI50 (786-0 renal): 3.22 µM
TGI (786-0 renal): 14.8 µM
GI50 (SF-539 CNS): 3.66 µM
TGI (SF-539 CNS): 9.66 µM
GI50 (SF-295 CNS): 7.28 µM
TGI (SF-295 CNS): 24.6 µM
GI50 (T-47D breast): 2.48 µM
TGI (T-47D breast): 7.39 µM
GI50 (EKVX NSCLC): 4.74 µM
TGI (EKVX NSCLC): 22.2 µM
GI50 (UO-31 renal): 2.15 µM
TGI (UO-31 renal): 6.58 µM
GI50 (UACC-257 melanoma): 4.99 µM
TGI (UACC-257 melanoma): 18.3 µM
GI50 (SN12C renal): 2.95 µM
TGI (SN12C renal): 13.2 µM
GI50 (LOX IMVI melanoma): 1.63 µM
TGI (LOX IMVI melanoma): 3.02 µM
GI50 (SNB-75 CNS): 2.22 µM
TGI (SNB-75 CNS): 8.99 µM
GI50 (OVCAR-4 ovarian): 2.89 µM
TGI (OVCAR-4 ovarian): 15.1 µM
GI50 (HCC-2998 colon): 1.69 µM
TGI (HCC-2998 colon): 3.15 µM
GI50 (HOP-62 NSCLC): 2.4 µM
TGI (HOP-62 NSCLC): 6.23 µM
GI50 (SNB-19 CNS): 6.32 µM
TGI (SNB-19 CNS): 32.5 µM
GI50 (HL-60(TB) leukemia): 2.67 µM
TGI (HL-60(TB) leukemia): 5.87 µM
GI50 (OVCAR-5 ovarian): 2.61 µM
TGI (OVCAR-5 ovarian): 6.77 µM
GI50 (OVCAR-8 ovarian): 2.22 µM
TGI (OVCAR-8 ovarian): 5.67 µM
GI50 (SK-MEL-2 melanoma): 4.83 µM
TGI (SK-MEL-2 melanoma): 11.6 µM
GI50 (HCT-15 colon): 2.13 µM
TGI (HCT-15 colon): 4.55 µM
GI50 (CCRF-CEM leukemia): 2.09 µM
TGI (CCRF-CEM leukemia): 4.9 µM
GI50 (COLO 205 colon): 1.99 µM
TGI (COLO 205 colon): 3.7 µM
GI50 (NCI-H23 lung): 2.95 µM
TGI (NCI-H23 lung): 10.4 µM
GI50 (A549 NSCLC): 1.87 µM
TGI (A549 NSCLC): 4.63 µM
GI50 (SF-268 CNS): 3.12 µM
TGI (SF-268 CNS): 10.9 µM
GI50 (PC-3 prostate): 3.31 µM
TGI (PC-3 prostate): 14.8 µM
GI50 (NCI-H460 lung): 2.01 µM
TGI (NCI-H460 lung): 4.51 µM
GI50 (BT-549 breast): 3.98 µM
TGI (BT-549 breast): 26.5 µM
GI50 (NCI-H522 lung): 2.39 µM
TGI (NCI-H522 lung): 5.79 µM
GI50 (SK-OV-3 ovarian): 6.14 µM
TGI (SK-OV-3 ovarian): 22.9 µM
GI50 (DU-145 prostate): 2.36 µM
TGI (DU-145 prostate): 5.03 µM
GI50 (MDA-MB-435): 1.84 µM
TGI (MDA-MB-435): 3.92 µM
GI50 (MDA-MB-231 breast): 1.71 µM
TGI (MDA-MB-231 breast): 3.83 µM
GI50 (TK-10 renal): 2.02 µM
TGI (TK-10 renal): 4.04 µM
GI50 (MALME-3M melanoma): 4.41 µM
TGI (MALME-3M melanoma): 16.5 µM
GI50 (ACHN renal): 1.91 µM
TGI (ACHN renal): 3.56 µM
GI50 (OVCAR-3 ovarian): 3.05 µM
TGI (OVCAR-3 ovarian): 8.93 µM
GI50 (SK-MEL-28 melanoma): 4.38 µM
TGI (SK-MEL-28 melanoma): 17.9 µM
GI50 (SK-MEL-5 melanoma): 4.5 µM
TGI (SK-MEL-5 melanoma): 17.8 µM
GI50 (SW-620 colon): 1.83 µM
TGI (SW-620 colon): 3.82 µM
GI50 (MOLT-4 leukemia): 2.41 µM
TGI (MOLT-4 leukemia): 5.22 µM
GI50 (K-562 leukemia): 2.66 µM
TGI (K-562 leukemia): > 22 µM
GI50 (CAKI-1 renal): 2.49 µM
TGI (CAKI-1 renal): 8.67 µM
GI50 (HT29 colon): 2.05 µM
TGI (HT29 colon): 4.11 µM
GI50 (NCI-H226 lung): 5.73 µM
TGI (NCI-H226 lung): 31.1 µM
GI50 (IGROV1 ovarian): 2.02 µM
TGI (IGROV1 ovarian): 5.12 µM
GI50 (U251 CNS): 1.72 µM
TGI (U251 CNS): 3.31 µM
GI50 (KM12 colon): 1.85 µM
TGI (KM12 colon): 3.51 µM
GI50 (HCT-116 colon): 1.55 µM
TGI (HCT-116 colon): 2.93 µM
GI50 (A498 renal): 4.83 µM
TGI (A498 renal): 19.2 µM
GI50 (MCF7 breast): 0.523 µM
TGI (MCF7 breast): 2.37 µM
GI50 (RXF 393 renal): 2.14 µM
TGI (RXF 393 renal): 5.52 µM
GI50 (NCI/ADR-RES ovarian): 4.54 µM
TGI (NCI/ADR-RES ovarian): 18.8 µM
